The results in this text go back to US10743540B2, “3-amino-1,2,4-triazine derivatives and their use for controlling undesired plant growth” (BAYER CROPSCIENCE AKTIENGESELLSCHAFT, priority 2016, dated 2020).

SMILES strings stand for the structures.

What all share (assay type): in vivo
Test [1] concerns VERPE: Veronica persica. The experiment in a line: Pre-emergence herbicidal effect. To be noted: application rate 320 g/ha, scored visually after 3 weeks, 100% = plants have died, 0% = like control plants. An excerpt:
(§1) 1. Pre-Emergence Herbicidal Effect and Crop Plant Compatibility Seeds of monocotyledonous and dicotyledonous weed plants and crop plants are laid out in sandy loam soil in wood-fiber pots and covered with soil. The compounds of the invention, formulated in the form of wettable powders (WP) or as emulsion concentrates (EC), are then applied to the surface of the covering soil as aqueous suspension or emulsion at a water application rate equating to 600 to 800 L/ha with addition of 0.2% wetting agent. After the treatment, the pots are placed in a greenhouse and kept under good growth conditions for the trial plants. The damage to the test plants is scored visually after a test period of 3 weeks by comparison with untreated controls (herbicidal activity in percent (%): 100% activity=the plants have died, 0% activity=like control plants). [table]

Test [2] deals with STEME: Stellaria media. The experiment in a line: Pre-emergence herbicidal effect. As to conditions: application rate 320 g/ha, scored visually after 3 weeks, 100% = plants have died, 0% = like control plants.
Source text: as §1

Test [3] deals with VERPE: Veronica persica. As to the kind of experiment: Post-emergence herbicidal effect. To be noted: application rate 320 g/ha, treated at one-leaf stage, assessed visually after about 3 weeks, 100% = plants have died. How it is done: (§2) [table] 2. Post-Emergence Herbicidal Effect and Crop Plant Compatibility Seeds of monocotyledonous and dicotyledonous weed and crop plants are laid out in sandy loam soil in wood-fiber pots, covered with soil and cultivated in a greenhouse under good growth conditions. 2 to 3 weeks after sowing, the test plants are treated at the one-leaf stage. The compounds of the invention, formulated in the form of wettable powders (WP) or as emulsion concentrates (EC), are then sprayed onto the green parts of the plants as aqueous suspension or emulsion at a water application rate equating to 600 to 800 L/ha with addition of 0.2% wetting agent. After the test plants have been left to stand in the greenhouse under optimal growth conditions for about 3 weeks, the action of the preparations is assessed visually in comparison to untreated controls (herbicidal action in percent (%): 100% activity=the plants have died, 0% activity=like control plants).

The test system of test [4] is STEME: Stellaria media. As to the kind of experiment: Post-emergence herbicidal effect. To be noted: application rate 320 g/ha, treated at one-leaf stage, assessed visually after about 3 weeks, 100% = plants have died. How it is done:
as §2

For test [5], the system named is ECHCG: Echinochloa crus-galli. As to the kind of experiment: Pre-emergence herbicidal effect. As to conditions: application rate 320 g/ha, scored visually after 3 weeks, 100% = plants have died, 0% = like control plants.
Source text: as §1

The subject of test [6] is MATIN: Matricaria inodora. The experiment in a line: Pre-emergence herbicidal effect. As to conditions: application rate 320 g/ha, scored visually after 3 weeks, 100% = plants have died, 0% = like control plants.
Source text: as §1

For another test, the system named is VIOTR: Viola tricolor. As to the kind of experiment: Post-emergence herbicidal effect. As to conditions: application rate 320 g/ha, treated at one-leaf stage, assessed visually after about 3 weeks, 100% = plants have died. Here is the method: as §2
Test [7] has as its system POLCO: Polygonum convolvulus. As to the kind of experiment: Pre-emergence herbicidal effect. As to conditions: application rate 320 g/ha, scored visually after 3 weeks, 100% = plants have died, 0% = like control plants.
Source text: as §1

For `CC(C)(C)c1nnc(NC2CCOc3ccccc32)nc1N` (racemic) [Example 1.8], in the test with VERPE: Veronica persica [1], the “Herbicidal activity with respect to [%] VERPE” value (shortened to “Herbicidal activity … [%] VERPE”) amounted to 100%. Moreover, the “Herbicidal activity with respect to [%] STEME” value (shortened to “Herbicidal activity … [%] STEME”) in the test with STEME: Stellaria media [2] was found to be 80%.
On to `Clc1nnc(NC2CCCc3ccccc32)nc1NC1CC1` (racemic) [Example 1.10], for which the “Herbicidal activity … [%] STEME” value with STEME: Stellaria media [2] turned out to be 80%.
Same read-out and setting: with `Clc1nnc(NC2CCOc3ccccc32)nc1NC1CC1` (racemic) [Example 1.14] the figure was 90%.
`CNC(=O)c1nnc(NC2CCc3ccccc32)nc1N` (racemic) [Example 1.35]: in the test on VERPE: Veronica persica [1], the “Herbicidal activity … [%] VERPE” value was found to be 100%.
Take `Nc1nc(NC2COc3ccccc32)nnc1C(F)(F)F` (racemic) [Example 1.48]: the figures for the “Herbicidal activity … [%] VERPE” value in the test on VERPE: Veronica persica [3] and in the test with VERPE: Veronica persica [1] were 80% and 100%, respectively. In addition, the “Herbicidal activity … [%] STEME” value in the test with STEME: Stellaria media [4] and with STEME: Stellaria media [2] was 100% throughout. Also, in test [5], the “Herbicidal activity with respect to [%] ECHCG” value (from here on “Herbicidal activity … [%] ECHCG”) turned out to be 100%. For the same molecule, the “Herbicidal activity with respect to [%] MATIN” value (“Herbicidal activity … [%] MATIN” for short) in test [6] was 100%.
Regarding `N#Cc1nnc(NC2CCCc3cc(F)ccc32)nc1N` (racemic) [Example 1.63], in the test on STEME: Stellaria media [2], the “Herbicidal activity … [%] STEME” value is 100%.
Turning to `Nc1nc(NC2c3ccccc3CC2O)nnc1C(F)(F)F` (racemic) [Example 1.84], the results for the “Herbicidal activity … [%] VERPE” value in the test with VERPE: Veronica persica [3] and with VERPE: Veronica persica [1] were 80% and 100%, respectively. Further, the “Herbicidal activity with respect to [%] VIOTR” value (“Herbicidal activity … [%] VIOTR” for short) in the test on VIOTR: Viola tricolor was 90%. Also, in the test with STEME: Stellaria media [2], the “Herbicidal activity … [%] STEME” value came out at 100%.
On to `Cc1ccc2c(c1)[C@H](Nc1nnc(Cl)c(NC3CC3)n1)[C@@H](C)C2` [Example 1.2], for which, in the test with VERPE: Veronica persica [1], the “Herbicidal activity … [%] VERPE” value is on record as 100%. In addition, the “Herbicidal activity … [%] STEME” value in the test on STEME: Stellaria media [2] turned out to be 100%. Also, the “Herbicidal activity … [%] MATIN” value in test [6] was 90%.
In the case of `CC(C)(C)c1nnc(N[C@@H]2CCCc3ccccc32)nc1N` [Example 1.5], the “Herbicidal activity … [%] VERPE” value is recorded as 80% with VERPE: Veronica persica [3] and 100% with VERPE: Veronica persica [1]. Moreover, the “Herbicidal activity … [%] MATIN” value in test [6] was determined as 90%.
With `Cc1ccc2c(c1)[C@H](Nc1nnc(C(C)(C)C)c(N)n1)[C@@H](C)C2` [Example 1.6], the “Herbicidal activity … [%] VERPE” value in the test on VERPE: Veronica persica [3] amounted to 80%; in the test on VERPE: Veronica persica [1], 100%. Also, the “Herbicidal activity … [%] VIOTR” value in the test on VIOTR: Viola tricolor was 80%. The “Herbicidal activity … [%] MATIN” value in test [6] was 90%.
`CC(C)(C)c1nnc(N[C@@H]2CCc3ccccc32)nc1N` [Example 1.7]: the “Herbicidal activity … [%] VERPE” value is 90% in the test with VERPE: Veronica persica [3] and 100% in the test on VERPE: Veronica persica [1]. Besides, in test [6], the “Herbicidal activity … [%] MATIN” value was 90%.
As for `CC(=O)c1nnc(N[C@@H]2CCCc3ccccc32)nc1N` [Example 1.30], the figures for the “Herbicidal activity … [%] VERPE” value in the test on VERPE: Veronica persica [3] and with VERPE: Veronica persica [1] were 80% and 100%, respectively. Besides, the results for the “Herbicidal activity … [%] STEME” value in the test on STEME: Stellaria media [4] and with STEME: Stellaria media [2] were 80% and 100%, respectively. The “Herbicidal activity … [%] ECHCG” value in test [5] was 80%. Further, the “Herbicidal activity … [%] MATIN” value in test [6] is listed as 100%. In addition, in test [7], the “Herbicidal activity with respect to [%] POLCO” value worked out at 100%.
On to `CCOC(=O)c1nnc(N[C@@H]2CCc3ccccc32)nc1N` [Example 1.33], for which the “Herbicidal activity … [%] VERPE” value with VERPE: Veronica persica [3] came to 80%; in the test with VERPE: Veronica persica [1], 100%. Moreover, in the test on STEME: Stellaria media [2], the “Herbicidal activity … [%] STEME” value is on record as 100%. Moreover, the “Herbicidal activity … [%] ECHCG” value in test [5] came out at 80%. Moreover, in test [6], the “Herbicidal activity … [%] MATIN” value came out at 100%. Further, in test [7], the “Herbicidal activity with respect to [%] POLCO” value turned out to be 100%.
Turning to `CNC(=O)c1nnc(N[C@@H]2CCCc3ccccc32)nc1N` [Example 1.34, 5-Amino-N-methyl-3-[(1R)-1,2,3,4-tetrahydronaphthalen-1-ylamino]-1,2,4-triazine-6-carboxamide], in the test on VERPE: Veronica persica [3], the “Herbicidal activity … [%] VERPE” value is on record as 90%.
Regarding `N#Cc1nnc(N[C@@H]2CCc3ccccc32)nc1N` [Example 1.38], the “Herbicidal activity … [%] VIOTR” value with VIOTR: Viola tricolor is listed as 90%. Also, the “Herbicidal activity … [%] VERPE” value in the test on VERPE: Veronica persica [1] was determined as 100%. Further, the “Herbicidal activity … [%] STEME” value in the test on STEME: Stellaria media [2] is reported as 100%. Also, the “Herbicidal activity … [%] ECHCG” value in test [5] came out at 80%.
With `CCOC(=O)CCNC(=O)c1nnc(N[C@H]2c3cc(C)ccc3C[C@@H]2C)nc1N` [Example 1.42], the “Herbicidal activity … [%] VERPE” value in the test on VERPE: Veronica persica [1] amounted to 80%. The “Herbicidal activity … [%] STEME” value in the test on STEME: Stellaria media [2] is 100%.
`CCOC(=O)CNC(=O)c1nnc(N[C@H]2c3cc(C)ccc3C[C@@H]2C)nc1N` [Example 1.43]: the “Herbicidal activity … [%] VERPE” value in the test on VERPE: Veronica persica [3] stood at 80%; with VERPE: Veronica persica [1], 100%. Further, in the test with VIOTR: Viola tricolor, the “Herbicidal activity … [%] VIOTR” value worked out at 80%. The “Herbicidal activity … [%] STEME” value with STEME: Stellaria media [2] came to 100%. In addition, the “Herbicidal activity … [%] MATIN” value in test [6] stood at 100%.
Turning to `CCCS(=O)(=O)NC(=O)c1nnc(N[C@H]2c3cc(C)ccc3C[C@@H]2C)nc1N` [Example 1.53], the “Herbicidal activity … [%] VERPE” value was found to be 80% in the test with VERPE: Veronica persica [3] and 100% in the test on VERPE: Veronica persica [1]. Moreover, in the test on STEME: Stellaria media [2], the “Herbicidal activity … [%] STEME” value amounted to 100%.
As for `Cc1ccc2c(c1)[C@H](Nc1nnc(C(=O)NS(=O)(=O)c3ccccc3)c(N)n1)[C@@H](C)C2` [Example 1.55], the “Herbicidal activity … [%] VERPE” value is recorded as 80% with VERPE: Veronica persica [3] and 90% with VERPE: Veronica persica [1]. Besides, the “Herbicidal activity … [%] VIOTR” value in the test with VIOTR: Viola tricolor was found to be 80%. Moreover, the “Herbicidal activity … [%] STEME” value with STEME: Stellaria media [2] turned out to be 100%.
In the case of `Cc1ccc2c(c1)[C@H](Nc1nnc(C(=O)NS(=O)(=O)c3ccc([N+](=O)[O-])cc3)c(N)n1)[C@@H](C)C2` [Example 1.56], the “Herbicidal activity … [%] VERPE” value with VERPE: Veronica persica [1] worked out at 100%. Moreover, the “Herbicidal activity … [%] STEME” value in the test with STEME: Stellaria media [2] was determined as 100%.
Regarding `Cc1ccc2c(c1)[C@H](Nc1nnc(C(=O)NS(=O)(=O)C(F)(F)F)c(N)n1)[C@@H](C)C2` [Example 1.57], the “Herbicidal activity … [%] VERPE” value in the test on VERPE: Veronica persica [3] is listed as 80%; with VERPE: Veronica persica [1], 100%. In addition, the “Herbicidal activity … [%] STEME” value in the test with STEME: Stellaria media [2] came out at 100%.
`Cc1ccc2c(c1)[C@@H](Nc1nnc(C#N)c(N)n1)CC2` [Example 1.61]: the “Herbicidal activity … [%] STEME” value with STEME: Stellaria media [2] was determined as 80%.
`Cc1ccc2c(c1)[C@H](Nc1nnc(C(=O)O)c(N)n1)CC2` [Example 1.75]: the “Herbicidal activity … [%] STEME” value in the test with STEME: Stellaria media [4] is on record as 100%.
`Cc1ccc2c(c1)[C@H](Nc1nnc(-c3ccc(Cl)cc3)c(N)n1)[C@@H](C)C2` [Example 1.79, 6-(4-Chlorophenyl)-N^3-[(1R,2S)-2,6-dimethyl-2,3-dihydro-1H-inden-1-yl]-1,2,4-triazine-3,5-diamine]: the “Herbicidal activity … [%] VERPE” value with VERPE: Veronica persica [1] is given as 100%. For the same molecule, in the test on STEME: Stellaria media [2], the “Herbicidal activity … [%] STEME” value was found to be 100%.
With `C=Cc1nnc(N[C@H]2c3cc(C)ccc3C[C@@H]2C)nc1N` [Example 1.80], the “Herbicidal activity … [%] VIOTR” value in the test on VIOTR: Viola tricolor is reported as 100%. Further, in the test with VERPE: Veronica persica [1], the “Herbicidal activity … [%] VERPE” value stood at 100%. In the test on STEME: Stellaria media [2], the “Herbicidal activity … [%] STEME” value was 100%.
`CS(=O)(=O)c1nnc(NC2c3ccccc3CC2O)nc1N` (stereo not drawn) [Example 1.87]: the “Herbicidal activity … [%] VERPE” value in the test with VERPE: Veronica persica [1] is recorded as 90%. The “Herbicidal activity … [%] STEME” value with STEME: Stellaria media [2] was found to be 100%.
